Assay results: paper PMC3726001 (Bioorganic & medicinal chemistry letters, 2010)
In brackets after ≈: the same amount, converted by molar mass.

Tests used:
[1] = biological target: [3H]DTBZ-binding site on VMAT2 (Rattus norvegicus, UniProt Q01827); assay: [3H]DTBZ binding to VMAT2
VMAT2 = VMAT2 (Rattus norvegicus, UniProt Q01827); assay: Inhibition of [3H]DA uptake into synaptic vesicles; assay type: biochemical
Aqueous solubility = assay type: physicochemical
guinea pigs = conditions: cited from earlier work
dogs = conditions: cited from earlier work
[2] = tested on: (+)-methamphetamine (METH) self-administration; conditions: rats; effect not surmounted by METH; cited from earlier work
[3] = tested on: (+)-METH-induced dopaminergic toxicity; conditions: rats; repeated administration prior to (+)-METH self-administration; cited from earlier work

Sequence of [3H]DTBZ-binding site on VMAT2 (Q01827 whole entry): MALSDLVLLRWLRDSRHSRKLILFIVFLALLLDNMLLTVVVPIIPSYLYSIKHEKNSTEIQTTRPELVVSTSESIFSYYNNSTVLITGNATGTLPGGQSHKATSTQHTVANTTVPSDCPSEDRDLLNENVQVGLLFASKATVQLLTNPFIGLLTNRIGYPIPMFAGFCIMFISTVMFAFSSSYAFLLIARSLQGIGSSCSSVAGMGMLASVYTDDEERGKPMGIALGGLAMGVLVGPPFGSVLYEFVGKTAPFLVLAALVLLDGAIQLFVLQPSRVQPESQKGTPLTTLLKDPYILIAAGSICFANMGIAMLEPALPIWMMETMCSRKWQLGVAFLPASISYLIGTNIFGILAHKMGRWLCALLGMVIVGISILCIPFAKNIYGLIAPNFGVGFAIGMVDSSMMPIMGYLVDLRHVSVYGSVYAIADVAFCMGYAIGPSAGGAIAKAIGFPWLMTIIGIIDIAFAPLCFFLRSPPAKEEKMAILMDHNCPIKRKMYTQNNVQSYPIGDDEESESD
Sequence of VMAT2 (Q01827 whole entry): as above

## CN1[C@@H](CCc2cccnc2)CCC[C@H]1CCc1cccnc1 [compound 14]
[1]; compared to lobelane
  fold less potent than lobelane in binding to the [3H]DTBZ binding site: about 30 fold

## CN1[C@@H](CCc2ccnc3ccccc23)CCC[C@H]1CCc1ccnc2ccccc12.Cl [compound 23]
VMAT2
  potency in inhibiting [3H]DA uptake compared to lobelane: equipotent with lobelane
Aqueous solubility
  water solubility characteristics compared to lobelane: improved water solubility
[1]; compared to lobelane
  binding to the [3H]DTBZ binding site compared to lobelane: almost as avidly as lobelane

## CN1[C@@H](CCc2ccccc2)CCC[C@H]1CCc1ccccc1 [compound 1, N-methyl-cis-2,6-diphenethylpiperidine]
Guinea pigs
  pharmacological action in guinea pigs: peripheral spasmolytic, ‘central stimulating’ action
Aqueous solubility
  solubility: 300 µg/mL (≈ 976 µM)
dogs
  respiratory analeptic activity: marked respiratory analeptic activity

## CN1[C@@H](CCc2ccc3ccccc3n2)CCC[C@H]1CCc1ccc2ccccc2n1.Cl [compound 22]
VMAT2
  potency in inhibiting [3H]DA uptake compared to lobelane: equipotent with lobelane
Aqueous solubility
  water solubility characteristics compared to lobelane: improved water solubility
[1]
  affinity for the [3H]DTBZ binding site: submicromolar affinity
[1]; compared to lobelane
  binding to the [3H]DTBZ binding site compared to lobelane: almost as avidly as lobelane

## CN1[C@@H](CC(=O)c2ccccc2)CCC[C@H]1C[C@H](O)c1ccccc1 [compound 2, lobeline]
[2]
  effect on (+)-METH self-administration: inhibits
[3]
  effect on (+)-METH-induced dopaminergic toxicity: prevents

## CN1[C@@H](CCc2c[nH]c3ccccc23)CCC[C@H]1CCc1c[nH]c2ccccc12 [compound 24]
[1]
  affinity for the [3H]DTBZ binding site: greatly diminished affinity

## CN1[C@@H](CCc2ccncc2)CCC[C@H]1CCc1ccncc1 [compound 21]
[1]; compared to lobelane
  binding to the [3H]DTBZ binding site compared to lobelane: marginally lower in binding affinity
